Results from patent publication US20120184504A1, “"The Use of a PAR-1 Antagonist in Combination with a P2Y12 ADP Receptor Antagonist for Inhibition of Thrombosis"” (priority 2009, published 2012).

Tests used:
[1] = Activated partial thromboplastin time (APTT) in plasma, Folts model animals; assay type: in vivo, cynomolgus monkeys; conditions: for APTT: i.v.; for effect on APTT: tested doses
Method: (§1) Animals instrumented to produce CFRs were administered SCH 602539, cangrelor, or a combination of SCH 602539 and cangrelor. The dosing regimens of SCH 602539 were selected to provide a broad range of inhibition of platelet aggregation induced by 1 μM thrombin receptor agonist peptide (TRAP), whereas the doses of cangrelor were selected to achieve 50%-60% inhibition of platelet aggregation induced by 10 μM ADP (the degree of inhibition obtained with clopidogrel). Group 1 received drug vehicle only (20% hydroxypropyl betacyclodextran or saline, 2 mL i.v.). Group 2 received SCH 602539 dissolved in 20% hydroxypropyl betacyclodextran administered as sequential i.v. boluses of 0.1, 0.3, or 1 mg/kg, at 30-minute intervals. Group 3 received cangrelor dissolved in saline and administered as an intravenous infusion of 0.1, 0.2, or 0.3 μg/kg/min for 30 minutes each. Group 4 received a combination of SCH 602539 bolus plus cangrelor infusion (at respective doses of: 1) 0.05 mg/kg+0.05 μg/kg/min; 2) 0.1 mg/kg+0.1 μg/kg/min; and 3) 0.15 mg/kg+0.1 μg/kg/min. The three dose regimens within each group were administered sequentially over the consecutive 30-minute periods coinciding with the re-induction of endothelial injury. Study drug or vehicle was administered after stable CFRs were achieved, and upon the completion of a 30-minute baseline CFR collection period, drug(s) or vehicle were administered incrementally (every 30 minutes) either as a bolus (SCH 602539) or as an infusion (cangrelor), and their effects on CFRs were monitored in the next three 30-minute observation periods. Blood samples (3 mL) were collected from the femoral arterial catheter at the end of each 30-minute observation period for assessment of ex vivo platelet aggregation and coagulation parameters.
Platelet aggregation studies were performed ex viva on blood samples obtained from the monkeys subjected to the Folts model, using a ChronoLog whole blood aggregometer (Model 540VS, Havertown, Pa.). Briefly, 0.5 mL of blood was incubated with 0.5 mL of normal saline at 37° C. in a cuvette containing a stir bar for 2 minutes. Platelet agonists used in this study included TRAP (3 μM), ADP (10 μM), the thromboxane A2 mimetic U46619 (10 μM), and collagen (3 μg/mL). Platelet aggregation was monitored for 5 minutes following the addition of the agonist. The peak aggregation response was recorded in ohms. In addition, standard coagulation parameters, including prothrombin time (PT), activated partial thromboplastin time (APTT), and activated clotting time (ACT), were assessed.
PT and APTT assays were performed with plasma, while the ACT assay was performed with whole blood. Data are presented as mean±SEM (n=5-6/group).

[2] = tested on: platelet-dependent thrombus formation (cyclic flow reductions); test: Folts model of thrombosis: cyclic flow reductions (CFRs) in the carotid artery; assay type: in vivo, cynomolgus monkeys; conditions: for EC50 (dose regimen needed for 50% reduction in CFRs): from dose-response curve, Inhibitory Effect Emax model
Description: The procedures used in this study are similar to the acute artery occlusion model developed by Folts and others. (Cook J J, Sitko G R, Bednar B, Condra C, Mellott M J, Feng D M, Nutt R F, Shafer J A, Gould R J, Connolly T M. An antibody against the exosite of the cloned thrombin receptor inhibits experimental arterial thrombosis in the African green monkey. Circulation. 1995; 91:2961-2971. Folts J. An in vivo model of experimental arterial stenosis, intimal damage, and periodic thrombosis. Circulation. 1991; 83(Suppl):IV3-IV14. Mousa S A, DeGrado W F, Mu D X, Kapil R P, Lucchesi B R, Reilly T M. Oral antiplatelet, antithrombotic efficacy of DMP 728, a novel platelet GPIIb/IIIa antagonist. Circulation. 1996; 93:537-543. Wu D, Vanhoorelbeke K, Cauwenberghs N, Meiring M, Depraetere H, Kotze H F, Deckmyn H. Inhibition of the von Willebrand (VWF)-collagen interaction by an antihuman VWF monoclonal antibody results in abolition of in vivo arterial platelet thrombus formation in baboons. Blood. 2002; 99:3623-3628).
Cynomolgus monkeys were sedated with ketamine HCl (10 mg/kg, IM) followed by anesthetization with sodium pentobarbital 20 mg/kg i.v. bolus and an infusion of 5 mg/kg/h i.v. for the duration of the experiment. Body temperature was maintained at 37°-39° C., and fluids infused were warmed to body temperature. The right carotid artery was exposed and dissected free of surrounding tissue, and a transonic flow probe of appropriate size was placed around the vessel. A Lexan constrictor (5 mm length) was placed onto the carotid artery. The constrictor was sized to abolish reactive hyperemia and to reduce mean carotid blood flow by no more than 50%-60%. Mechanical damage to the endothelium was induced in the constricted segment of the artery. Cyclic flow reductions due to platelet-dependent thrombus formation occurred shortly after placement of the constrictor over the region of endothelial damage. These gradual declines in carotid blood flow were occasionally interrupted spontaneously, but frequently required manual restoration by gently shaking the vessel. Flow reductions would typically return in 3-4 minutes. CFR frequency was calculated as the number of such cycles (CFRs) over a 30-minute period. On the basis of pilot studies, CFRs were evaluated in a maximum of four consecutive 30-minute collection periods, and mechanically mediated endothelial injury was performed at 30-minute intervals to ensure exposure of the thrombogenic endothelium.
as §1, with “Study drug or vehicle was administered after stable CFRs were achieved, and upon the completion of a 30-minute baseline CFR collection period, drug(s) or vehicle were administered incrementally (every 30 minutes) either as a bolus (SCH 602539) or as an infusion (cangrelor), and their effects on CFRs were monitored in the next three 30-minute observation periods. Blood samples (3 mL) were collected from the femoral arterial catheter at the end of each 30-minute observation period for assessment of ex vivo platelet aggregation and coagulation parameters.” left out

Q: Which APTT ([1]; SCH 602539 0.1 mg/kg, bolus, plasma, baseline 22.8 ± 1.7) does the source give for `CCOC(=O)N[C@@H]1CC[C@@H]2[C@@H](C1)C[C@H]1C(=O)O[C@H](C)[C@H]1[C@H]2/C=C/c1ccc(-c2ccccn2)cn1` [SCH 602539] here?
A: 22.4 ± 1.5 s

Q: What about the APTT ([1]; SCH 602539 0.3 mg/kg, bolus, baseline 22.8 ± 1.7) of the same molecule?
A: 23.4 ± 2.2 s

Q: What about the APTT ([1]; SCH 602539 1.0 mg/kg, bolus, baseline 22.8 ± 1.7) of the same molecule?
A: 25.4 ± 4.9 s

Q: And the “effect on APTT” value [1]?
A: no effect

Q: And the “CFR frequency reduced from baseline” value ([2]; SCH 602539 0.1 mg/kg i.v. bolus)?
A: approximately 50%

Q: And the CFRs ([2]; SCH 602539 0.1 mg/kg i.v. bolus, CFRs per 30-minute period, baseline 8.7 + 0.6)?
A: 4.3 + 1.3

Q: And the “animals in which CFRs were completely abolished” value ([2]; SCH 602539 0.3 mg/kg)?
A: 4 of 6

Q: And the “CFR frequency reduced from baseline” value ([2]; SCH 602539 0.3 mg/kg i.v. bolus, P<0.05 versus vehicle)?
A: > 80%

Q: What about the CFRs ([2]; SCH 602539 0.3 mg/kg i.v. bolus, per 30-minute period, baseline 8.7 + 0.6) of the same molecule?
A: 1.7 + 1.2

Q: And the “animals in which CFRs were completely abolished” value ([2]; SCH 602539 1.0 mg/kg)?
A: 4 of 6

Q: And the “CFR frequency reduced from baseline” value ([2]; SCH 602539 1.0 mg/kg i.v. bolus, P<0.05 versus vehicle)?
A: > 80%

Q: And the CFRs ([2]; SCH 602539 1.0 mg/kg i.v. bolus, per 30-minute period, baseline 8.7 + 0.6)?
A: 1.8 + 1.3

Q: What about the “EC50 (dose regimen needed for 50% reduction in CFRs)” value ([2]; i.v. bolus) of the same molecule?
A: 0.10 ± 0.042 mg/kg

Q: What does the source list for `CSCCNc1nc(SCCC(F)(F)F)nc2c1ncn2[C@@H]1O[C@H](COP(=O)(O)OP(=O)(O)C(Cl)(Cl)P(=O)(O)O)[C@@H](O)[C@H]1O` [Cangrelor]?
A: APTT ([1]; Cangrelor 0.1 μg/kg/min × 30 min, plasma, baseline 22.5 ± 1.6): 23.6 ± 2.6 s; APTT ([1]; Cangrelor 0.2 μg/kg/min × 30 min, baseline 22.5 ± 1.6): 22.1 ± 1.3 s; APTT ([1]; Cangrelor 0.3 μg/kg/min × 30 min, baseline 22.5 ± 1.6): 22.2 ± 2.0 s; effect on APTT [1]: no effect; CFRs ([2]; Cangrelor 0.1 μg/kg/min i.v. infusion 30 min, per 30-minute period, baseline 9.5 + 0.9): 5.7 + 1.5; CFRs ([2]; Cangrelor 0.2 μg/kg/min i.v. infusion 30 min, baseline 9.5 + 0.9): 3.2 + 1.7; CFRs ([2]; Cangrelor 0.3 μg/kg/min i.v. infusion 30 min, baseline 9.5 + 0.9): 1.2 + 1.3; CFR frequency reduced from baseline ([2]; cangrelor 0.1 μg/kg/min 30-minute infusion): approximately 40%; CFR frequency reduced from baseline ([2]; cangrelor 0.2 μg/kg/min 30-minute infusion, significant versus vehicle): ~70%; CFR frequency reduced from baseline ([2]; cangrelor 0.3 μg/kg/min 30-minute infusion, significant versus vehicle): ~90%; animals in which CFRs were completely prevented ([2]; cangrelor highest dose (0.3 μg/kg/min)): 5/6; animals in which CFRs were completely prevented ([2]; cangrelor intermediate dose (0.2 μg/kg/min)): 3/6; complete suppression of CFRs ([2]; cangrelor lowest dose (0.1 μg/kg/min)): No complete suppression; EC50 (dose regimen needed for 50% reduction in CFRs) ([2]; i.v. infusion): 0.099 ± 0.039 µg/kg/min
